Among the data in ChEMBL document CHEMBL5233269, “Anticancer potential of spirocompounds in medicinal chemistry: A pentennial expedition” (Eur J Med Chem, 2021) are IC50, inhibition and Activity values, retold here.

Data set [1] relates to A549. The data set can be described thus: Antiproliferative activity against human A549 cells. The format is functional, cell-based.
For data set [2], the system named is MCF7. The data set can be described thus: Antiproliferative activity against human MCF7 cells. It counts as functional, cell-based.
Data set [3] has as its system MCF7. Description: Anticancer activity against human MCF7 cells incubated for 48 hrs by MTT assay. The format is functional, cell-based. Particulars: MCF7, 48 h.
The nature of data set [4]: Anticancer activity against human U87 cells incubated for 48 hrs by MTT assay. It counts as functional, cell-based, U-87MG ATCC. Particulars: U-87 MG.
Data set [5] relates to A549. Description: Anticancer activity against human A549 cells incubated for 48 hrs by MTT assay. It counts as functional, cell-based. Particulars: A549, 48 h.
The test system of data set [6] is HepG2. Description: Anticancer activity against human HepG2 cells incubated for 48 hrs by MTT assay. The format is functional, cell-based. Particulars: HepG2, 48 h.
A further data set relates to HCT-116. The data set can be described thus: Anticancer activity against human HCT-116 cells incubated for 48 hrs by MTT assay. It counts as functional, cell-based. Particulars: HCT-116, 48 h.
The subject of data set [7] is A549. The data set can be described thus: Cytotoxicity against human A549 cells assessed as inhibition of tumor cell proliferation incubated for 72 hrs by MTT assay. It counts as functional, cell-based. Particulars: A549, 72 h.
For another data set, the system named is MGC-803. Description: Cytotoxicity against human MGC-803 cells assessed as inhibition of tumor cell proliferation incubated for 72 hrs by MTT assay. The format is functional, cell-based. Particulars: MGC-803, 72 h.
A further data set deals with SMMC-7721. Description: Cytotoxicity against human SMMC-7721 cells assessed as inhibition of tumor cell proliferation incubated for 72 hrs by MTT assay. It counts as functional, cell-based. The settings on record: SMMC-7721, 72 h.
Another data set deals with ECa-109 cell line. The data set can be described thus: Cytotoxicity against human EC109 cells assessed as inhibition of tumor cell proliferation incubated for 72 hrs by MTT assay. The format is functional, cell-based. Particulars: ECa-109, 72 h.
Data set [8] relates to MDA-MB-231. Description: Antiproliferative activity against human MDA-MB-231 cells assessed as inhibition of cell viability by MTT assay. The format is functional, cell-based.
The test system of data set [9] is MCF7. Description: Antiproliferative activity against human MCF7 cells by MTT assay. It counts as functional, cell-based.
Data set [10] concerns HeLa. The data set can be described thus: Cytotoxicity against human HeLa cells. The format is functional, cell-based.
Data set [11] in a line: Cytotoxicity against green monkey Vero cells. Particulars: green monkey (Chlorocebus sabaeus). The format is toxicity, cell-based.
The target in data set [12] is cGMP-specific 3',5'-cyclic phosphodiesterase (Homo sapiens) (UniProt O76074). The data set can be described thus: Inhibition of PDE5 (unknown origin) at 3 nM relative to control.
A further data set deals with B16-F10. Description: Anticancer activity against mouse B16-F10 cells. The format is functional, cell-based.
Data set [13] relates to HeLa. The data set can be described thus: Anticancer activity against human HeLa cells assessed as inhibition of cell proliferation. It counts as functional, cell-based.
Data set [14] deals with A-375. The data set can be described thus: Cytotoxicity against human A-375 cells at 10 ug/ml incubated for 24 hrs by MTT assay. It counts as functional. The settings on record: dose 10 µg/ml.
For data set [15], the system named is A-375. Description: Cytotoxicity against human A-375 cells at 100 ug/ml incubated for 24 hrs by MTT assay. The format is functional. Particulars: dose 100 µg/ml.
Data set [16] addresses Tumour suppressor p53/oncoprotein Mdm2 (Homo sapiens) (UniProt P04637+Q00987). Description: Inhibition of MDM2/p53 (unknown origin) interaction at 10 uM relative to control. The format is protein assay.
Another data set has as its system PC-3. Description: Anticancer activity against human PC-3 cells at 100 uM relative to control. It counts as functional.
Data set [17] relates to LNCaP. Description: Anticancer activity against human LNCaP cells at 100 uM relative to control. The format is functional.
For data set [18], the system named is LNCaP. The data set can be described thus: Anticancer activity against human LNCaP cells measured after 48 hrs by MTT assay. The format is functional, cell-based.
The next data set deals with DU-145. The data set can be described thus: Anticancer activity against human DU-145 cells measured after 48 hrs by MTT assay. It counts as functional, cell-based. The settings on record: DU-145, 48 h.
Data set [19] has as its system MCF7. The data set can be described thus: Anticancer activity against human MCF7 cells measured after 48 hrs by MTT assay. The format is functional, cell-based. Particulars: MCF7, 48 h.
The test system of another data set is Ishikawa. The data set can be described thus: Anticancer activity against human Ishikawa cells measured after 48 hrs by MTT assay. The format is functional, cell-based.
Data set [20] relates to MDA-MB-231. Description: Anticancer activity against human MDA-MB-231 cells measured after 48 hrs by MTT assay. It counts as functional, cell-based. Particulars: MDA-MB-231, 48 h.
A further data set deals with 4T1. Description: Anticancer activity against mouse 4T1 cells at 200 microg/ml measured after 48 hrs relative to control. It counts as functional.
Data set [21] has as its system HepG2. The data set can be described thus: Anticancer activity against human HepG2 cells at 200 microg/ml measured after 48 hrs relative to control. The format is functional.
In a further data set the test system is K562. The data set can be described thus: Antiproliferative activity against human K562 cells assessed as inhibition of cell viability. The format is functional, cell-based.
The subject of data set [22] is MCF7. The data set can be described thus: Antiproliferative activity against human MCF7 cells assessed as inhibition of cell viability. The format is functional, cell-based.

Converted amounts (≈) assume the structure as drawn.

Chain of Tumour suppressor p53/oncoprotein Mdm2 (Homo sapiens) (P04637 whole entry, looked up): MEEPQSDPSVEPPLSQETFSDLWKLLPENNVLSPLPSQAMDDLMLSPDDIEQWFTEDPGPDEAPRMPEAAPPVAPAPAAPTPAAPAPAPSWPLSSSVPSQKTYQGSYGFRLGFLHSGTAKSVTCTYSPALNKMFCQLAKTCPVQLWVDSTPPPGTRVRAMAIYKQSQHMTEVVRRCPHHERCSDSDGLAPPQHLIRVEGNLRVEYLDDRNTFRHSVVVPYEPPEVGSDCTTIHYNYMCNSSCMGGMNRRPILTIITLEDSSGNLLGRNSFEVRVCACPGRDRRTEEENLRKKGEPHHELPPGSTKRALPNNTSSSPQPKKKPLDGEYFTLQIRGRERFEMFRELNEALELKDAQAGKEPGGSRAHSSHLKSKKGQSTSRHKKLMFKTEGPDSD
Chain of Tumour suppressor p53/oncoprotein Mdm2 (Homo sapiens) (Q00987 whole entry, looked up): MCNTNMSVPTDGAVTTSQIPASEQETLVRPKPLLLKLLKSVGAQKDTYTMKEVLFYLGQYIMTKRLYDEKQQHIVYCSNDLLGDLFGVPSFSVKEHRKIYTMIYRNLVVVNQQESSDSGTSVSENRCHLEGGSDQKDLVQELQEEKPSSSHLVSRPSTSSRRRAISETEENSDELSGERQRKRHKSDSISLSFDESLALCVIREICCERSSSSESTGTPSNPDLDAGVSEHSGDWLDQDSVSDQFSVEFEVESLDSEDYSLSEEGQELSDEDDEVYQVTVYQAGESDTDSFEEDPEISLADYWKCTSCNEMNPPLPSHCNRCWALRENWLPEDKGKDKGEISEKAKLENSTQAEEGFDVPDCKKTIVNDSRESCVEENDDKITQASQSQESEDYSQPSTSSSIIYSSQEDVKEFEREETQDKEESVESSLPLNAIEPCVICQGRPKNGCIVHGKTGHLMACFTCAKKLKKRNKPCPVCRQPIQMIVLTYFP

For the compound `N#CC1=C(N)Oc2c(c(=O)oc3ccccc23)C12C(=O)N(Cc1cccc(Br)c1)c1ccccc12` (centres undefined), the half-maximal inhibitory concentration (IC50) in the data set with A549 [1] was determined as 29.3 µM; with MCF7 [2] it was 16.2 µM.

In the case of `CCOC(=O)[C@H]1[C@@H](NO)[C@@H]2c3ccccc3OC(C)(C)[C@H]2[C@H](O)[C@]12C(=O)Nc1ccc(F)cc12`, the IC50 in the data set with MCF7 [3] came out at 2.5 µM; in data set [4] it was 41.9 µM; in the data set on A549 [5], 4.8 µM; with HepG2 [6], 16.2 µM; in the data set on HCT-116 it was 25.4 µM.

As to `C[C@]12CC[C@H](O)CC1=CCC1C2CC[C@@]2(C)C1CC[C@@H]2C1=CC2(C(=O)Nc3c(Cl)cccc32)C(C#N)=C(N)N1` (some centres undefined), the IC50 is 33 µM in the data set on A549 [7], 17.2 µM in the data set with MGC-803, 29.2 µM in the data set with SMMC-7721 and 6.4 µM with ECa-109 cell line.

For `Clc1cccc(Cl)c1C1=NO[C@@]2(CCCCO2)[C@H]1Br`, the IC50 with MDA-MB-231 [8] was 43.1 µM; in the data set on MCF7 [9], 52.4 µM.

Take `O=C(c1ccccn1)[C@@H]1[C@@H](c2ccccc2Cl)[C@H](c2ccccc2)NC12C(=O)Nc1ccccc12` (some centres undefined): the half-maximal inhibitory concentration (IC50) in the data set on HeLa [10] is 70 µg/mL (≈ 146 µM); in data set [11], > 110 µg/mL.

For `O=C1NC2(CCCCC2)Nc2ccccc21`, in data set [12], the inhibition came out at 100%.

Consider `CN1C(=O)N(C)C(=O)C2(CC3(C(=O)c4ccccc4C3=O)N(C)[C@H]2c2ccccc2)C1=O`, for which the results for the half-maximal inhibitory concentration (IC50) in the data set on B16-F10 and in the data set on HeLa [13] were 3.5 µM and 4.3 µM, respectively.

`CCN1C(=O)C2(c3ccccc31)N(C)CC(n1ccc3ccccc31)C2(C#N)C#N` (centres undefined): the values for the Activity in the data set with A-375 [14] and with A-375 [15] were 95.86% and 85.69%, respectively.

Take `Cc1cc(Cl)ccc1[C@@H]1N(C)C2(CC13C(=O)N(C)C(=O)N(C)C3=O)C(=O)c1ccccc1C2=O`: the 50% inhibitory concentration (IC50) in the data set on B16-F10 stood at 8.4 µM; in the data set on HeLa [13], 434 µM.

As for `CCOC(=O)C1CN(C(=O)N2CCCCC2)C2(C(=O)Nc3ccccc32)C1c1ccccc1O` (centres undefined), the inhibition in [16] amounted to 57.7%.

`CN1CC(n2ccc3ccccc32)C(C#N)(C#N)C12C(=O)N(Cc1ccccc1)c1ccccc12` (centres undefined): the Activity was 97.29% in the data set with A-375 [14] and 95.86% with A-375 [15].

Turning to `O=C(/C=C/c1ccc(F)cc1)c1ccc(OP2(Oc3ccc(C(=O)/C=C/c4ccc(F)cc4)cc3)=NP3(=NP4(=N2)Oc2ccccc2-c2ccccc2O4)Oc2ccccc2-c2ccccc2O3)cc1`, the Activity is reported as 35.93% in the data set with PC-3 and 57.66% with LNCaP [17].

Turning to `O=C(/C=C/c1cccc(F)c1)c1ccc(OP2(Oc3ccc(C(=O)/C=C/c4cccc(F)c4)cc3)=NP3(=NP4(=N2)Oc2ccccc2-c2ccccc2O4)Oc2ccccc2-c2ccccc2O3)cc1`, the figures for the Activity with PC-3 and in the data set on LNCaP [17] were 43.71% and 63.78%, respectively.

As to `CCOC(=O)N1CCC2(CC1)NC(=O)c1ccccc1N2`, in data set [12], the inhibition came to 100%.

`O=C1NC2(C3=C(C(=O)C4C=CC=CC4C3=O)c3ccccc32)c2cc(Cl)c(Cl)cc21` (centres undefined): the IC50 in the data set on LNCaP [18] amounted to 1.1 µM; in the data set on DU-145, 2.13 µM; in the data set with MCF7 [19] it was 1.02 µM; with Ishikawa it was 0.75 µM; in the data set with MDA-MB-231 [20] it was 3.01 µM.

Turning to `Cc1ccc2c(c1)[C@]1(C(=O)N2)[C@@H](C(=O)c2ccccc2)[C@]2(C(=O)Nc3ccccc32)[C@@H]2c3ccccc3CCN21`, the inhibition at 200 µg/mL in the data set with 4T1 is 20.8%; in the data set with HepG2 [21], 66.7%.

Take `O=C1/C(=C/c2ccc(Br)cc2)CCCC12[C@@H]1CCCN1[C@@]1(C(=O)Nc3ccccc31)[C@H]2c1ccc(Br)cc1` (some centres undefined): the figures for the IC50 with K562 and in the data set with MCF7 [22] were 15.8 µM and 15.5 µM, respectively.

With `CCOC(=O)[C@H]1[C@@H](NO)[C@@H]2c3ccccc3OC(C)(C)[C@H]2[C@H](O)[C@]12C(=O)Nc1ccc(Cl)cc12`, the IC50 with MCF7 [3] came to 1.7 µM; in data set [4], 37.5 µM; in the data set on A549 [5], 5.9 µM; in the data set on HepG2 [6] it was 18.4 µM; in the data set on HCT-116, 13 µM.
